Assay results: patent US8754073B2, “Substituted piperazino-dihydrothienopyrimidines” (Boehringer Ingelheim International GmbH, priority 2007, dated 2014)

Biological target: PDE4B (Homo sapiens, UniProt Q07343)
Test: Scintillation Proximity Assay (SPA) of PDE4B enzyme activity ([H3]-cAMP cleavage)
Type: biochemical
Settings: test substance 1 μM
Method in brief: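 SPA read-out: [H3]-cAMP incubated with PDE4B in assay buffer for 1 h at 30 °C, with and without test compound at 1 μM. Reaction stopped by adding yttrium silicate beads that bind the [H3]-AMP product; after 45 min settling, scintillation counted. Value is % inhibition at 1 μM.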

[1] = one-hour incubation with [H3]-cAMP at 30° C.
[2] = one-hour incubation of [H3]-cAMP with PDE4B enzyme at 30° C.

Chain of PDE4B (Q07343 whole entry, species assumed): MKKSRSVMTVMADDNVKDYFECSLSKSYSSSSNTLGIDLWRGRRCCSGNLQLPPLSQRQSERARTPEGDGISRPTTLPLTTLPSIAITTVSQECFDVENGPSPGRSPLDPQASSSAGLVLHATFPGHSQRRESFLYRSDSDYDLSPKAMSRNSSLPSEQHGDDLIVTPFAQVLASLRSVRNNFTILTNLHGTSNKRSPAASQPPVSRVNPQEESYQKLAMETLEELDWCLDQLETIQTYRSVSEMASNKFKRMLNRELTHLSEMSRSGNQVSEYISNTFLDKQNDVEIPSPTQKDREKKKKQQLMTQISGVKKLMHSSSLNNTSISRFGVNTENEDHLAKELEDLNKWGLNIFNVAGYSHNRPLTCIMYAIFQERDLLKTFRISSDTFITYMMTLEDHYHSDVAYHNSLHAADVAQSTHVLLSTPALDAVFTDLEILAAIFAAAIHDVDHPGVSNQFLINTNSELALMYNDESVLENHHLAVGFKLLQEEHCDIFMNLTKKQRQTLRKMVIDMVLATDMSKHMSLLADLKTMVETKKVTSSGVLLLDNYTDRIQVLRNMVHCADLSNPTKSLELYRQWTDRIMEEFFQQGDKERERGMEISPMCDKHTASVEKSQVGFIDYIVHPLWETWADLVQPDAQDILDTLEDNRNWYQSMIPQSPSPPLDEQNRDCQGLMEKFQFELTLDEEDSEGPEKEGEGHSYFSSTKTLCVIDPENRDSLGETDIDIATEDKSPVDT

Row | inhibition at 1 µM [1] [%] | inhibition at 1 µM [2] [%] | SMILES
1 | 89 |  | CN1C[C@@H](Nc2nc(N3CCC(Oc4ccc(Cl)cc4)CC3)nc3c2[S+]([O-])CC3)CCC1=O (stereo partly shown) [Example 265]
2 | 94 |  | CC(C)(C)OC(=O)NC1CC1Nc1nc(N2CCC(c3ccc(Cl)cc3)CC2)nc2c1[S+]([O-])CC2 (stereo not shown) [Example 231, tert-butyl (2-{2-[4-(4-chlorophenyl)-piperidin-1-yl]-5-oxo-6,7-dihydro-5H-5λ^4-thieno[3,2-d]pyrimidin-4-ylamino}-cyclopropyl)-carbamidate]
3 |  | 92 | [O-][S+]1CCc2nc(N3CCC(c4ccncc4)CC3)nc(NC3(CO)CC3)c21 (stereo not shown) [Example 34]
4 |  | 94 | CC(C)[C@H](CO)Nc1nc(N2CCC(c3cccc(Cl)c3)CC2)nc2c1[S+]([O-])CC2 (stereo partly shown) [Example 24]
5 |  | 96 | [O-][S+]1CCc2nc(N3CCC(c4nc5cc(Cl)ccc5s4)CC3)nc(NC3CCOCC3)c21 (stereo not shown) [Example 118]
6 |  | 97 | [O-][S+]1CCc2nc(N3CCC(c4noc5ccccc45)CC3)nc(NC3CCOCC3)c21 (stereo not shown) [Example 60]
7 | 92 |  | Cc1nn(C)c(C)c1CNC(=O)c1cccc(C2CCN(c3nc4c(c(NC5CCOCC5)n3)[S+]([O-])CC4)CC2)c1 (stereo not shown) [Example 250]
8 | 87 |  | Cc1nc(C2CCN(c3nc4c(c(NC5CCOCC5)n3)[S+]([O-])CC4)CC2)oc1-c1ccc(Cl)cc1 (stereo not shown) [Example 282]

Second part, the compound before the results:

Row | SMILES | inhibition at 1 µM [1] [%] | inhibition at 1 µM [2] [%]
9 | CN1C[C@@H](Nc2nc(N3CCC(c4n[nH]c5ccccc45)CC3)nc3c2[S+]([O-])CC3)CCC1=O (stereo partly shown) [Example 219] | 82 | 
10 | [O-][S+]1CCc2nc(N3CCC(c4noc5ccc(F)cc45)CC3)nc(NC3CCOCC3)c21 (stereo not shown) [Example 122] |  | 96
11 | [O-][S+]1CCc2nc(N3CCC(c4cc5ccccc5o4)CC3)nc(NC3(CO)CC3)c21 (stereo not shown) [Example 110] |  | 97
12 | [O-][S+]1CCc2nc(N3CCC(c4cc(-c5cccs5)[nH]n4)CC3)nc(NC3(CO)CC3)c21 (stereo not shown) [Example 285] | 90 | 
13 | N#CC1(c2ccc(F)cc2)CCN(c2nc3c(c(NC4CCOCC4)n2)[S+]([O-])CC3)CC1 (stereo not shown) [Example 293] | 86 | 
14 | CCc1[nH]c2ccc(F)cc2c1C1CCN(c2nc3c(c(Nc4cccc(F)c4)n2)[S+]([O-])CC3)CC1 (stereo not shown) [Example 82, {2-[4-(2-Ethyl-5-Fluoro-1H-Indol-3-Yl)-Piperidin-1-Yl]-5-Oxo-6,7-Dihydro-5H-5λ^4-Thieno[3,2-d]Pyrimidin-4-Yl}-(3-Fluorophenyl)-Amine] |  | 92
15 | N#Cc1ccc(OC2CCN(c3nc4c(c(NC5(CO)CC5)n3)[S+]([O-])CC4)CC2)cc1 (stereo not shown) [Example 322] | 91 | 
16 | CC(C)N1CCc2ccc(OC3CCN(c4nc5c(c(NC6CCOCC6)n4)[S+]([O-])CC5)CC3)cc2CC1 (stereo not shown) [Example 235] | 87 | 
17 | CN1C[C@@H](Nc2nc(N3CCC(C(=O)N4CCOCC4)(c4ccccc4)CC3)nc3c2[S+]([O-])CC3)CCC1=O (stereo partly shown) [Example 252, 1-Methyl-5-{2-[4-(Morpholine-4-Carbonyl)-4-Phenyl Piperidin-1-Yl]-5-Oxo-6,7-Dihydro-5H-5λ^4-Thieno[3,2-d]Pyrimidin-4-Ylamino}-Piperidin-2-One] | 92 | 
18 | [O-][S+]1CCc2nc(N3CCC4(CC3)OCc3ccccc34)nc(NC3(CO)CC3)c21 (stereo not shown) [Example 109] |  | 75
19 | [O-][S+]1CCc2nc(N3CCC(c4nc(-c5cccnc5)no4)CC3)nc(NC3(CO)CC3)c21 (stereo not shown) [Example 115] |  | 94
20 | CCN1CCc2ccc(OC3CCN(c4nc5c(c(NC6CCOCC6)n4)[S+]([O-])CC5)CC3)cc2CC1 (stereo not shown) [Example 234] | 95 | 
21 | [O-][S+]1CCc2nc(N3CCC4(CC3)OCc3ccccc34)nc(NC3CCOCC3)c21 (stereo not shown) [Example 125] |  | 74
22 | CC(C)[C@H](CO)Nc1nc(N2CCC(CNS(C)(=O)=O)(c3ccccc3)CC2)nc2c1[S+]([O-])CC2 (stereo partly shown) [Example 326] | 88 | 
